Test results taken from publication PMC1802613 (Nucleic Acids Research, 2006).

Target: M-PMV NC-dUTPase (Mason-Pfizer monkey virus, UniProt P07570)
Test: isothermal titration calorimetry
Format: binding

Sequence of M-PMV NC-dUTPase (P07570 526-759): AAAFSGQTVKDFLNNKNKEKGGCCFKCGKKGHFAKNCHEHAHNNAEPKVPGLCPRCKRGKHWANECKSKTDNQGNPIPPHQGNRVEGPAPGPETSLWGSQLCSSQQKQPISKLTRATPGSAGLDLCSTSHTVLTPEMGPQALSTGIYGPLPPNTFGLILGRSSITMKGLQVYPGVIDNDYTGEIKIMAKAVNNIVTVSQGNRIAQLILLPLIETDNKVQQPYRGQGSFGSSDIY

- Kd: 1.2 ± 0.02 µM
SMILES: O=c1ccn([C@H]2C[C@H](O)[C@@H](COP(=O)(O)NP(=O)(O)OP(=O)(O)O)O2)c(=O)[nH]1 [α,β-imino dUTP]
